In assay [1] the test system is Human peripheral blood mononuclear cells (PBMC). Kind of assay: TNF-α release from LPS-stimulated PBMC. The class given is cell-based. Conditions: Lipopolysaccharide 1 microg/ml, 18 hours, AlphaLISA, read-out: TNF-α IC50 range. The procedure:
Human peripheral blood mononuclear cells (PBMC) were isolated from fresh buffy coats by density centrifugation using lymphoprep tubes (Medinor). Frozen PBMC's were washed in serum free assay buffer (RPMI1640 with 25 mM HEPES, 1% pen/strep, […] L glutamine, 0.5% human serum albumin) and living cells counted. Lipopolysaccharide (1 microg/ml; SIGMA) was added to the cells which were then transferred to 384 well tissue culture plates ([…]) containing titrated test compounds. The cells were incubated for 18 hours at 37° C. in serum free assay buffer and the level of TNFalpha in the supernatant was quantitated by AlphaLISA (PerkinElmer) by measuring fluorescence intensity at 615 nm.
Results were expressed as IC50 values calculated from inhibition curves using as controls the secretion in LPS stimulated wells and the secretion in cells incubated with 10 microM of a PDE4 inhibitor reference compound.
A general note: In Alpha technology, singlet oxygen from a donor bead excites a nearby acceptor bead.

Assay [2] deals with human PDE4D catalytic domain (UniProt no. Q08499 [S380-L740]) (Homo sapiens (Human), UniProt Q08499). Kind of assay: PDE4 assay (TR-FRET, cAMP hydrolysis). The class given is biochemical. Conditions: read-out: PDE4 IC50 range. The procedure: The human PDE4D catalytic domain (UniProt no. Q08499 [S380-L740]) was incubated with a mixture of non-labelled cAMP (cyclic adenosine monophosphate) and fluorescein amidite (FAM) conjugated cAMP and titrated test or reference compound.
human PDE4D catalytic domain, sequence (Q08499 380-740): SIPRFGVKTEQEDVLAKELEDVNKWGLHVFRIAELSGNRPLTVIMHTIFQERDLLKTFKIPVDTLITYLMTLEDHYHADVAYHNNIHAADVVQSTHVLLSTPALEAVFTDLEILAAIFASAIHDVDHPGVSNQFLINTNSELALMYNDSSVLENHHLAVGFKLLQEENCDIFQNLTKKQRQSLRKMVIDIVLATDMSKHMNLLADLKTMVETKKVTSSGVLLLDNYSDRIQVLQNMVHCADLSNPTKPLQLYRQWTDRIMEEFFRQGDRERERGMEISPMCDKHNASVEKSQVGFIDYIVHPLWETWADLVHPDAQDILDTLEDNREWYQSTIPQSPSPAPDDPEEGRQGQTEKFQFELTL
Following brief incubation the enzymatic reaction was stopped by addition of binding buffer containing nanoparticles with immobilized trivalent metal ions capable of binding 1) AMP phospho groups and 2) terbium (Tb) donor fluorophores. Subsequent excitation of the Tb donor triggered time-resolved FRET to adjacent FAM acceptor molecules resulting in light emission. In the presence of a PDE4 inhibitor, AMP generation was reduced resulting in a lower fluorescence signal. The cAMP phosphodiester is not bound by the detection system.
Results were expressed as IC50 values (nM) calculated from inhibition curves where the TR-FRET signal was normalized to Tb fluorescence intensity and the negative (DMSO vehicle) and positive (10 microM a PDE4 inhibitor reference compound) controls.
Background: Time-resolved FRET reads energy transfer from a long-lived donor to a nearby acceptor.

pIC50: −log10 of the molar value.

The term pIC50 denotes the negative decadic logarithm of the IC50, by convention in mol/L.

As for `CNC(=O)c1ccc(C(=O)OC2CN(c3nc4c(c(N(C)C5CCOCC5)n3)[S+](O)CC4)C2)cc1` (centres unmarked) [Example 51, [1-[4-[methyl(tetra-hydropyran-4-yl)amino]-5-oxido-6,7-dihydro-thieno[3,2-d]pyrimidin-5-ium-2-yl]azetidin-3-yl] 4-(methylcarbamoyl)-benzoate], the negative logarithm of the IC50 (pIC50) in assay [1] and in assay [2] was greater than 7.00 each time.

In the case of `CN(c1nc(N2CC(OC(=O)c3cscn3)C2)nc2c1[S+]([O-])CC2)C1CCOCC1` (stereo in doubt) [Example 6, [1-[(5R)-4-[Methyl(tetrahydropyran-4-yl)amino]-5-oxido-6,7-dihydrothieno[3,2-d]pyrimidin-5-ium-2-yl]azetidin-3-yl] thiazole-4-carboxylate], the pIC50 in assay [1] and in assay [2] was greater than 7.00 throughout.

With `CC(=O)N1CC[C@H](Nc2nc(N3CC(OC(=O)C4CCOCC4)C3)nc3c2[S@+](O)CC3)C1` [Example 74, [1-[4-[[(3S)-1-acetyl-pyrrolidin-3-yl]amino]-5-oxido-6,7-dihydro-thieno[3,2-d]pyrimidin-5-ium-2-yl]azetidin-3-yl]tetrahydropyran-4-carboxylate], the results for the negative logarithm of the IC50 (pIC50) in assay [1] and in assay [2] were 6.30 to 7.00 and greater than 7.00, respectively.

Turning to `Cc1ncc(C(=O)OC2CN(c3nc4c(c(N(C)C5CCOCC5)n3)[S+]([O-])CC4)C2)s1` (centres unmarked) [Example 36, [1-[4-[methyl(tetra-hydropyran-4-yl)amino]-5-oxido-6,7-dihydro-thieno[3,2-d]pyrimidin-5-ium-2-yl]azetidin-3-yl] 2-methylthiazole-5-carboxylate], the pIC50 in assay [1] and in assay [2] was greater than 7.00 in each case.

For `CN(c1nc(N2CC(OC(=O)C3CC(O)C3)C2)nc2c1[S+]([O-])CC2)C1CCOCC1` (centres unmarked) [Example 14, [1-[4-[methyl(tetra-hydropyran-4-yl)amino]-5-oxido-6,7-dihydro-thieno[3,2-d]pyrimidin-5-ium-2-yl]azetidin-3-yl] 3-hydroxycyclobutane-carboxylate], the pIC50 in assay [1] and in assay [2] was 6.30 to 7.00 in each case.

With `CC(=O)N1CC[C@@H](Nc2nc(N3CC(OC(=O)C4CCOCC4)C3)nc3c2[S@+](O)CC3)C1` [Example 75, [1-[4-[[(3R)-1-acetyl-pyrrolidin-3-yl]amino]-5-oxido-6,7-dihydro-thieno[3,2-d]pyrimidin-5-ium-2-yl]azetidin-3-yl] tetrahydropyran-4-carboxylate], the negative logarithm of the IC50 (pIC50) in assay [1] and in assay [2] was less than 6.30 in each case.

For `O=C(OC1CN(c2nc3c(c(NC4CC5(COC5)C4)n2)[S@+]([O-])CC3)C1)c1cscn1` (single isomer, unassigned) [Example 71], the pIC50 in assay [1] was less than 6.30; in assay [2] it was 6.30 to 7.00.

As for `CC(C)S(=O)(=O)c1ccc(C(=O)OC2CN(c3nc4c(c(N(C)C5CCOCC5)n3)[S+]([O-])CC4)C2)cc1` (centres unmarked) [Example 60, [1-[4-[methyl(tetra-hydropyran-4-yl)amino]-5-oxido-6,7-dihydro-thieno[3,2-d]pyrimidin-5-ium-2-yl]azetidin-3-yl] 4-isopropylsulfonyl-benzoate], the pIC50 in assay [1] and in assay [2] was greater than 7.00 each time.

For the compound `O=C(OC1CN(c2nc3c(c(NC4CCOCC4)n2)[S@@+]([O-])CC3)C1)c1cnsc1` [Example 1, [1-[(5R)-5-Oxido-4-(tetrahydropyran-4-ylamino)-6,7-dihydrothieno[3,2-d]pyrimidin-5-ium-2-yl]azetidin-3-yl] isothiazole-4-carboxylate], the pIC50 in assay [1] and in assay [2] was greater than 7.00 in each case.

Consider `Cc1cccc(C(=O)OC2CN(c3nc4c(c(N(C)C5CCOCC5)n3)[S+]([O-])CC4)C2)c1` (centres unmarked) [Example 25, [1-[4-[methyl(tetra-hydropyran-4-yl)amino]-5-oxido-6,7-dihydro-thieno[3,2-d]pyrimidin-5-ium-2-yl]azetidin-3-yl] 3-methylbenzoate], for which the negative-log IC50 (pIC50) in assay [1] and in assay [2] was greater than 7.00 throughout.

These data come from patent publication US11365204B2, “Substituted dihydrothienopyrimidines and their use as phosphodiesterase inhibitors” (UNION therapeutics A/S, priority 2017, dated 2022).
